Like-named read-outs stand apart in the source and are kept apart here.
Experiments:
HCV genotype 1b replicon = test: HCV replicon assay (luciferase reporter); type: cell-based; conditions: Zluc cells, 72 hours of incubation
Procedure: Huh-7-derived cell line (Zluc) that harbors an HCV genotype 1b replicon and a luciferase reporter gene was grown in Dulbecco's Modified Eagle Medium (DMEM) supplemented with 10% fetal bovine serum, 2 mM GlutaMAX, 1% MEM nonessential amino acids, 100 IU/mL penicillin, 100 μg/mL streptomycin, and 0.5 mg/mL Geneticin® (G418). For dose response testing the cells were seeded in 96-well plates at 7.5×10^3 cells per well in a volume of 50 μL, and incubated at 37° C./5% CO2. Drug solutions were made up freshly in Huh-7 media as 2× stocks. Ten additional 5-fold dilutions were prepared from these stocks in DMEM without G418. At least three hours after Zluc cells were seeded, drug treatment was initiated by adding 50 μL of drug dilutions to the plates in duplicate. Final concentrations of drug ranged from 100 μM to 0.0000512 μM. Cells were then incubated at 37° C./5% CO2. […] After 72 hours of incubation, the inhibition of HCV replication was measured by quantification of photons emitted after mono-oxygenation of 5′-fluoroluciferin to oxyfluoroluciferin by firefly luciferase. For this, media was removed from the plates via gentle tapping. Fifty microliters of ONE-glo luciferase assay reagent was added to each well. The plates were shaken gently for 3 min at room temperature and luminescence was measured on a Victor^3 V 1420 multilabel counter (Perkin Elmer) with a 1 second read time using a 700 nm cut-off filter. The EC50 values were calculated from dose response curves from the resulting best-fit equations determined by Microsoft Excel and XLfit 5.2 software.
Compounds presented in Table 1 below were assayed according to the replicon assay described herein.

[1] = Cytotoxicity evaluation, CellTiter-Blue Cell Viability Assay; type: cell-based; conditions: human
Procedure: (§1) For cytotoxicity evaluation, Zluc cells were treated with compound as described herein, and cell viability was monitored using the CellTiter-Blue Cell Viability Assay (Promega) by adding 20 μL of the assay solution to each well. The plates were then incubated at 37° C./5% CO2 for at least 3 hours. Fluorescence was detected in plates using excitation and emission wavelengths of 531 and 595 nm, respectively, in a Victor^3 V 1420 multilabel counter (Perkin Elmer) and CC50 values were determined using Microsoft Excel and XLfit 5.2 software.

[2] = Pharmacokinetics of liver triphosphate following a single oral dose in CD-1 mice; type: in vivo; conditions: CD-1 male mice, single oral dose 10 mg/kg in PEG 200, liver triphosphate at 4, 12 and 24 hours, AUC given at 1 μmol/kg
Procedure: A single oral dose of test compound at 10 mg/kg in PEG 200 (dose volume 5 mL/kg) was administered to nine CD-1 male mice. Five untreated animals were used for the collection of control plasma and liver. Terminal plasma and liver samples were collected from three animals per time point at 4, 12 and 24 hours post dose. Liver specimens were collected from all animals immediately after the incision. Freezing forceps stored in liquid nitrogen were used to freeze the liver before excision.
Liver samples were analyzed for the active species nucleoside triphosphate by LC-MS/MS. The triphosphate levels were assayed by homogenizing (on ice) a known weight of mouse liver with 4× volume of 0.95 M trichloroacetic acid (TCA). Internal standard solution was added to the homogenate followed by neutralization with 20% ammonium hydroxide solution and addition of 500 μL 1% formic acid. The tissue samples were extracted by weak anion exchange solid phase extraction (SPE). Post extraction, the eluates were evaporated under nitrogen, followed by reconstitution before injection onto the LC-MS/MS system. […] The analyte was detected and quantified by tandem mass spectrometry in positive ion mode on an API4000 equipped with a Turbo Ionspray® interface.

[3] = test system: Zluc cells (Huh-7-derived cell line); test: Cytotoxicity evaluation, CellTiter-Blue Cell Viability Assay; type: cell-based; conditions: read-out: HCV Replicon CC50
Procedure: as §1

[4] = biological target: T1, wild-type HCV genotype 1b NS5B protein (HCV polymerase) (Hepatitis C virus genotype 1b, UniProt Q9WMX2); test: HCV polymerase enzyme assay, wild-type; type: biochemical
T1 construct: HCV genotype 1b NS5B protein were used to generate recombinant HCV polymerases (with a deletion of the 21 carboxy terminal amino acids); made in house
Text: (§2) Test compounds in the form of nucleoside triphosphates were examined for inhibitory activity against purified HCV polymerase in a standard assay. Bacterial expression constructs encoding the approximately 65 kDa HCV genotype 1b NS5B protein were used to generate recombinant HCV polymerases (with a deletion of the 21 carboxy terminal amino acids). Both the wild-type genotype 1b protein and protein containing the S282T mutation were expressed and purified for use in the enzymatic activity assay.
(§3) The enzymatic activity assay measured the inhibitory effect of increasing concentrations of test compound on the incorporation of α-[^33P]-labeled nucleotide into trichloroacetic acid-precipitable material. Recombinant polymerase and synthetic RNA template were combined in reaction buffer containing ribonucleoside triphosphates, α-[^33P]-labeled nucleotide and eight concentrations of test compound in three-fold dilutions. Reactions were incubated for two hours at 30° C.
(§4) Reactions were terminated by the addition of ice-cold trichloroacetic acid and sodium pyrophosphate to promote precipitation of newly-synthesized ribonucleic acid. Precipitable material from the reactions was collected by filtration onto 96-well filter plates, washed extensively with water, and quantified by liquid scintillation.
(§5) The inhibitory activity of test compounds was determined by fitting results to dose-response curves using XLfit software.

[5] = biological target: T2, HCV genotype 1b NS5B protein containing the S282T mutation (Hepatitis C virus genotype 1b, UniProt Q9WMX2, S2701T); test: HCV polymerase enzyme assay, S282T mutant; type: biochemical
T2 construct: HCV genotype 1b NS5B protein were used to generate recombinant HCV polymerases (with a deletion of the 21 carboxy terminal amino acids); made in house
Text: as §2, §3, §4, §5

[6] = Zluc cells (Huh-7-derived HCV replicon cell line)
[7] = Zluc cells, read-out: HCV Replicon CC50

| Structure (SMILES) | CC50 [1, 6] [µM] | EC50 (HCV genotype 1b replicon; Hepatitis C virus, 72 h) [µM] | also measured |
| --- | --- | --- | --- |
| CC(C)OP1(=O)OC[C@H]2O[C@@H](n3ccc(N)nc3=O)C(Cl)(Cl)[C@@H]2O1 (single isomer, unassigned) [104 (Diast. 1)] | > 50 | – | EC50 (HCV genotype 1b replicon): 1 to 10 µM; Ms Liver TP AUC ([2]; listed as 104 Diast. 1, 10 mg/kg): ++++ (2000 < ++++) |
| O=c1ccn([C@@H]2O[C@H](CO)[C@@H](O)[C@]2(F)Cl)c(=O)[nH]1 [Compound 1006] | > 50 | > 10 | – |
| CC(C)OC(=O)[C@H](C)N[P@](=O)(OCCSC(=O)C(C)(C)C)OC[C@H]1O[C@@H](n2ccc(N)nc2=O)C(Cl)(Cl)[C@@H]1O (single isomer, unassigned) [101b (Diast. 2)] | – | – | EC50 (HCV genotype 1b replicon): 1 to 10 µM; CC50 [3]: > 50 µM |
| CC(C)OC(=O)[C@H](C)N[P@](=O)(OCCSC(=O)C(C)(C)C)OC[C@H]1O[C@@H](n2ccc(N)nc2=O)[C@@](F)(Cl)[C@@H]1O (single isomer, unassigned) [102b (Diast. 2)] | – | – | EC50 (HCV genotype 1b replicon): > 10 µM; CC50 [3]: > 50 µM |
| O=c1ccn([C@@H]2O[C@H](COP(=O)(O)OP(=O)(O)OP(=O)(O)O)[C@@H](O)[C@@]2(F)Cl)c(=O)[nH]1 [Compound 2005] | – | – | IC50 [4]: < 0.25 µM; IC50 [5]: 1 to 10 µM |
| CC(C)OP1(=O)OC[C@H]2O[C@@H](n3ccc(N)nc3=O)C(Cl)(Cl)[C@@H]2O1 (single isomer, unassigned) [104 (Diast. 2)] | – | – | EC50 (HCV genotype 1b replicon): > 10 µM; CC50 [3]: > 50 µM; Ms Liver TP AUC ([2]; listed as 104 Diast. 2, 10 mg/kg): +++ (+++ ≦ 2000) |
| Nc1nc2c(ncn2[C@@H]2O[C@H](CO)[C@@H](O)[C@]2(F)Cl)c(=O)[nH]1 [Compound 1005] | > 50 | > 10 | – |
| O=c1ccn([C@@H]2O[C@H](COP(=O)(O)OP(=O)(O)OP(=O)(O)O)[C@@H](O)[C@]2(F)Cl)c(=O)[nH]1 [Compound 2004] | – | – | IC50 [4]: < 0.25 µM; IC50 [5]: 1 to 10 µM |
| O=c1ccn([C@@H]2O[C@H](CO)[C@@H](O)[C@@]2(F)Cl)c(=O)[nH]1 [Compound 1007] | > 50 | > 10 | – |
| Nc1ncnc2c1ncn2[C@@H]1O[C@H](CO)[C@@H](O)C1(Cl)Cl [Compound 1011] | > 50 | > 10 | – |
| CC(C)OC(=O)[C@@H](C)NP(=O)(OC[C@H]1O[C@@H](n2cnc3c(=O)[nH]c(N)nc32)[C@@](F)(Cl)[C@@H]1O)Oc1ccccc1 (mixture of isomers) [147a (Diast. Mix)] | – | > 10 | CC50 [1, 7]: > 50 µM |
| O=c1ccn([C@@H]2O[C@H](CO)[C@@H](O)C2(Cl)Cl)c(=O)[nH]1 [Compound 1002] | > 50 | > 10 | – |
| Nc1nc2c(ncn2[C@@H]2O[C@H](COP(=O)(O)OP(=O)(O)OP(=O)(O)O)[C@@H](O)[C@]2(F)Cl)c(=O)[nH]1 [Compound 2003] | – | – | IC50 [4]: < 0.25 µM; IC50 [5]: < 0.25 µM |
| Nc1ncnc2c1ncn2[C@@H]1O[C@H](COP(=O)(O)OP(=O)(O)OP(=O)(O)O)[C@@H](O)C1(Cl)Cl [Compound 2011] | – | – | IC50 [4]: 0.25 to 1 µM |
| CC(C)OC(=O)[C@@H](C)NP(=O)(OC[C@H]1C[C@@H](n2ccc(N)nc2=O)C(Cl)(Cl)[C@@H]1O)Oc1ccccc1 (mixture of isomers) [103a (Diast. Mix)] | – | 1 to 10 | CC50 [1, 7]: > 50 µM |
| CC(C)OC(=O)[C@H](C)N[P@](=O)(OCCSC(=O)C(C)(C)C)OC[C@H]1O[C@@H](n2ccc(N)nc2=O)[C@@](F)(Cl)[C@@H]1O (mixture of isomers) [102b (Diast. Mix)] | > 50 | > 10 | – |
| Nc1ccn([C@@H]2O[C@H](CO)[C@@H](O)[C@]2(F)Cl)c(=O)n1 [Compound 1004] | > 50 | 1 to 10 | – |
| CC(C)OC(=O)[C@H](C)N[P@](=O)(OCCSC(=O)C(C)(C)C)OC[C@H]1O[C@@H](n2ccc(N)nc2=O)C(Cl)(Cl)[C@@H]1O (single isomer, unassigned) [101b (Diast. 1)] | > 50 | 1 to 10 | – |
| Nc1ccn([C@@H]2O[C@H](CO)[C@@H](O)C2(Cl)Cl)c(=O)n1 [Compound 1001] | > 50 | > 10 | – |
| CC(C)OC(=O)[C@@H](C)NP(=O)(OC[C@H]1C[C@@H](n2ccc(N)nc2=O)C(Cl)(Cl)[C@@H]1O)Oc1ccccc1 (single isomer, unassigned) [103a (Diast. 2)] | – | – | EC50 (HCV genotype 1b replicon): > 10 µM |
| CC(C)OC(=O)[C@H](C)NP(=O)(OCCSC(=O)C(C)(C)C)OC[C@H]1O[C@@H](n2cnc3c(N)ncnc32)C(Cl)(Cl)[C@@H]1O (single isomer, unassigned) [117b (Diast. 2)] | – | – | EC50 (HCV genotype 1b replicon): 0.25 to 1 µM; CC50 [3]: ≤ 50 µM |
| CC(C)OC(=O)[C@@H](C)NP(=O)(OC[C@H]1C[C@@H](n2ccc(N)nc2=O)C(Cl)(Cl)[C@@H]1O)Oc1ccccc1 (single isomer, unassigned) [103a (Diast. 1)] | – | > 10 | CC50 [1, 7]: > 50 µM |
| CC(C)OC(=O)[C@H](C)N[P@](=O)(OCCSC(=O)C(C)(C)C)OC[C@H]1O[C@@H](n2ccc(N)nc2=O)[C@@](F)(Cl)[C@@H]1O (single isomer, unassigned) [102b (Diast. 1)] | > 50 | > 10 | – |
| O=c1ccn([C@@H]2O[C@H](COP(=O)(O)OP(=O)(O)OP(=O)(O)O)[C@@H](O)C2(Cl)Cl)c(=O)[nH]1 [Compound 2002] | – | – | IC50 [4]: < 0.25 µM; IC50 [5]: 1 to 10 µM |
| CC(C)OC(=O)[C@H](C)NP(=O)(OCCSC(=O)C(C)(C)C)OC[C@H]1O[C@@H](n2cnc3c(N)ncnc32)C(Cl)(Cl)[C@@H]1O (single isomer, unassigned) [117b (Diast. 1)] | ≤ 50 | 0.25 to 1 | – |
| Nc1ccn([C@@H]2O[C@H](COP(=O)(O)OP(=O)(O)OP(=O)(O)O)[C@@H](O)C2(Cl)Cl)c(=O)n1 [Compound 2001] | – | – | IC50 [4]: < 0.25 µM; IC50 [5]: 0.25 to 1 µM |

From patent US20170198005A1, “2'-DICHLORO AND 2'-FLUORO-2'-CHLORO NUCLEOSIDE ANALOGUES FOR HCV INFECTION” (IDENIX PHARMACEUTICALS LLC, priority 2013, published 2017)
